Reference: patent publication US10603289B2, “Process for the manufacture of ajoene derivatives” (DANMARKS TEKNISKE UNIVERSITET, priority 2010, dated 2020)

Key:
[1] = system: PA0852 cbpD; assay: DNA microarray, gene expression in ajoene treated P. aeruginosa cultures; assay type: cell-based; conditions: E:Z 1:4, OD600 2.0
Description: (§1) DNA microarray analysis was used to identify genes regulated by ajoene treatment. As a reference we have used the QS regulon previously identified by Hentzer et al., [M. Hentzer et al., EMBO J., 2003, 22, p. […] Exponential growing P. aeruginosa cultures were treated with the following four concentrations of ajoene; 10 μg/ml (42.7 μM), 20 μg/ml (85.4 μM), 40 μg/ml (170.8 μM) and 80 μg/ml (341.6 μM). (E,Z) ajoene having an E:Z ratio of 1:4 was used. […] The samples were retrieved at an OD600 nm of 2.0 (optical density) because previous investigations have shown the highest activity among the QS genes at that cell density. Gene expression of the treated cultures was compared to an untreated control.

[2] = system: PA1871 lasA; assay: as above; assay type: cell-based; conditions: E:Z 1:4, OD600 2.0
Description: as §1

[3] = system: PA2069; assay: as above; assay type: cell-based; conditions: E:Z 1:4, OD600 2.0
Description: as §1

[4] = system: PA2146; assay: as above; assay type: cell-based; conditions: E:Z 1:4, OD600 2.0
Description: as §1

[5] = system: PA2300 chic; assay: as above; assay type: cell-based; conditions: E:Z 1:4, OD600 2.0
Description: as §1

[6] = system: PA2570 pa1L; assay: as above; assay type: cell-based; conditions: pa1L PA2570 (LecA), E:Z 1:4, OD600 2.0
Description: as §1

[7] = system: PA3478 rhlB; assay: as above; assay type: cell-based; conditions: E:Z 1:4, OD600 2.0
Description: as §1

[8] = system: PA3479 rhlA; assay: as above; assay type: cell-based; conditions: E:Z 1:4, OD600 2.0
Description: as §1

[9] = system: PA4141; assay: as above; assay type: cell-based; conditions: E:Z 1:4, OD600 2.0
Description: as §1

[10] = system: PA4175 prpL; assay: as above; assay type: cell-based; conditions: E:Z 1:4, OD600 2.0
Description: as §1

[11] = system: lasB; assay: as above; assay type: cell-based; conditions: ajoene 10-80 μg/ml
Description: as §1

[12] = system: P. aeruginosa cultures; assay: Growth inhibitory effect on exponential growing cultures; assay type: cell-based; conditions: 10, 20, 40 and 80 μg/ml ajoene; E:Z 1:4
Description: as §1

[13] = system: rhamnolipid production of planktonic grown P. aeruginosa; assay: Rhamnolipid concentration in cultures quantified by LC-MS; assay type: cell-based; conditions: for rhamnolipid content: OD=1.5 (FIG. 4)
Excerpt: Samples retrieved at OD600=1.5 (dark grey bars), and at OD600=2.0 (light grey bars). Data represent the average of tree individual experiments. Error bars are mean±SD.
To exemplify the actual efficacy of ajoene in inhibiting synthesis of one of the major virulence factors, the concentration of rhamnolipid present in the cultures grown for DNA array and RT-PCR where directly quantified by LC-MS. The production of rhamnolipids is initiated early in stationary phase co-ordinately regulated by the Rhl QS system encoded by the rhlA, rhlB and rhlC genes (PA3479, PA3478 and PA1131) [V. E. Wagner et al., J Bacteriol., 2003, 185, p. 2080-2095 and R. Rahim et al., Mol Microbiol., 2001, 40, p. 708-718]. Samples where therefore retrieved at an OD600 nm of 1.5 and 2.0 to monitor rhamnolipid production before and after the synthesis was fully initiated. […] This concentration therefore almost completely blocks rhamnolipid synthesis. (E,Z) ajoene having an E:Z ratio of 1:4 was used.

[14] = system: wild-type P. aeruginosa; assay: Foreign-body (silicone tube implant) infection model; assay type: in vivo, mice
Description: To examine the effect of a combination treatment with ajoene and tobramycin in vivo we used an foreign-body infection model [L. D. Christensen et al., Microbiology, 2007, 153, p. 2312-2320]. Silicone tube implants with a size of 4 mm (inner diameter 4 mm/outer diameter 6 mm) pre-colonized with wild-type P. aeruginosa, were inserted into the peritoneal cavity of mice. Treatments were injected subcutaneously every 24 hours, where ajoene and tobramycin treatment were initiated two days pre-insertion and 24 hours post-insertion, respectively. 72 hours after insertion the implants were removed from the mice and the number of colony-forming units per implant was determined. […] (E,Z) ajoene having an E:Z ratio of 1:4 was used.

[15] = Biological activity after further purification, assays as described in the examples; conditions: after column chromatography further purified, e.g. reverse phase HPLC; or isolated pure isomers
Excerpt: The purity of (E,Z)-ajoene after the above procedure may be 95-99.5%, such as 97-99.5%, 98-99.5%, 99-99.5% such as about 99.5%. […] This was also found when isolating pure (E)-ajoene and/or pure (Z)-ajoene, e.g. using HPLC. It is speculated that small amounts of ajoene derived chemistry, i.e. compounds related to ajoene, such as less than 5%, 3%, 2%, 1%, such as less than 0.5% may be highly important in the stabilisation of (E,Z)-ajoene and derivatives, towards degradation, e.g. oxidation, reduction and or cleavage, both in vitro but importantly also in vivo.

[16] = system: P. aeruginosa; conditions: E:Z=1:4 isomer used; cited from earlier work

C=CCSSC=CC[S+]([O-])CC=C (centres unmarked) [ajoene, (E,Z)-4,5,9-trithiadodeca-1,6,11-triene-9-oxide]
fold change in gene expression compared to an untreated control ([1]; [Ajoene] 10 μg/ml): −2.8 fold
fold change in gene expression compared to an untreated control ([1]; [Ajoene] 20 μg/ml): −2.5 fold
fold change in gene expression compared to an untreated control ([1]; [Ajoene] 40 μg/ml): −3.9 fold
fold change in gene expression compared to an untreated control ([1]; [Ajoene] 80 μg/ml): −6.9 fold
fold change in gene expression compared to an untreated control ([2]; [Ajoene] 10 μg/ml): −2.6 fold
fold change in gene expression compared to an untreated control ([2]; [Ajoene] 20 μg/ml): −2.2 fold
fold change in gene expression compared to an untreated control ([2]; [Ajoene] 40 μg/ml): −3.0 fold
fold change in gene expression compared to an untreated control ([2]; [Ajoene] 80 μg/ml): −8.7 fold
fold change in gene expression compared to an untreated control ([3]; [Ajoene] 10 μg/ml): −2.3 fold
fold change in gene expression compared to an untreated control ([3]; [Ajoene] 20 μg/ml): −2.4 fold
fold change in gene expression compared to an untreated control ([3]; [Ajoene] 40 μg/ml): −4.0 fold
fold change in gene expression compared to an untreated control ([3]; [Ajoene] 80 μg/ml): −5.3 fold
fold change in gene expression compared to an untreated control ([4]; [Ajoene] 10 μg/ml): −1.3 fold
fold change in gene expression compared to an untreated control ([4]; [Ajoene] 20 μg/ml): −1.8 fold
fold change in gene expression compared to an untreated control ([4]; [Ajoene] 40 μg/ml): −2.6 fold
fold change in gene expression compared to an untreated control ([4]; [Ajoene] 80 μg/ml): −7.3 fold
fold change in gene expression compared to an untreated control ([5]; [Ajoene] 10 μg/ml): −2.5 fold
fold change in gene expression compared to an untreated control ([5]; [Ajoene] 20 μg/ml): −2.1 fold
fold change in gene expression compared to an untreated control ([5]; [Ajoene] 40 μg/ml): −5.1 fold
fold change in gene expression compared to an untreated control ([5]; [Ajoene] 80 μg/ml): −24.6 fold
fold change in gene expression compared to an untreated control ([6]; [Ajoene] 10 μg/ml): −1.8 fold
fold change in gene expression compared to an untreated control ([6]; [Ajoene] 20 μg/ml): −2.0 fold
fold change in gene expression compared to an untreated control ([6]; [Ajoene] 40 μg/ml): −3.3 fold
fold change in gene expression compared to an untreated control ([6]; [Ajoene] 80 μg/ml): −6.3 fold
fold change in gene expression compared to an untreated control ([7]; [Ajoene] 10 μg/ml): −2.6 fold
fold change in gene expression compared to an untreated control ([7]; [Ajoene] 20 μg/ml): −2.0 fold
fold change in gene expression compared to an untreated control ([7]; [Ajoene] 40 μg/ml): −3.3 fold
fold change in gene expression compared to an untreated control ([7]; [Ajoene] 80 μg/ml): −8.7 fold
fold change in gene expression compared to an untreated control ([8]; [Ajoene] 10 μg/ml): −2.2 fold
fold change in gene expression compared to an untreated control ([8]; [Ajoene] 20 μg/ml): −1.5 fold
fold change in gene expression compared to an untreated control ([8]; [Ajoene] 40 μg/ml): −2.6 fold
fold change in gene expression compared to an untreated control ([8]; [Ajoene] 80 μg/ml): −8.8 fold
fold change in gene expression compared to an untreated control ([9]; [Ajoene] 10 μg/ml): −1.0 fold
fold change in gene expression compared to an untreated control ([9]; [Ajoene] 20 μg/ml): −1.1 fold
fold change in gene expression compared to an untreated control ([9]; [Ajoene] 40 μg/ml): −1.3 fold
fold change in gene expression compared to an untreated control ([9]; [Ajoene] 80 μg/ml): −5.4 fold
fold change in gene expression compared to an untreated control ([10]; [Ajoene] 10 μg/ml): −3.7 fold
fold change in gene expression compared to an untreated control ([10]; [Ajoene] 20 μg/ml): −3.3 fold
fold change in gene expression compared to an untreated control ([10]; [Ajoene] 40 μg/ml): −5.3 fold
fold change in gene expression compared to an untreated control ([10]; [Ajoene] 80 μg/ml): −6.8 fold
down regulation of lasB (DNA microarray) [11]: not more than 5 fold
growth inhibitory effects [12]: do not exert any growth inhibitory effects
rhamnolipid content compared to the untreated culture ([13]; 20 μg/ml ajoene, OD600 nm of 2.0): approximately ⅓
rhamnolipid content ([13]; 40 μg/ml ajoene): below the detection level
rhamnolipid present in the sample ([13]; 80 μg/ml ajoene): almost no detectable rhamnolipid
rhamnolipid content ([13]; 80 μg/ml ajoene): below the detection level
clearing of implants, single treatment versus placebo group ([14]; CFU per implant 72 hours after insertion): significant difference in clearing
clearing of implants, between the two single treatment groups ([14]; ajoene versus tobramycin): no significant difference in clearing
biological activity after further purification [15]: lost all or parts of its biological activity
growth inhibitory effect on P. aeruginosa [16]: no measurable growth inhibitory effect
